# According to PubChem BioAssay AID256 (DTP/NCI, 2004):
# Values joined by “and” are separate entries in the source; they are usually repeats but may differ in a detail not shown here. Equal values may be shown once. Toxic doses and inconclusive results are not listed.
# System: CD2F1 mice, L1210 leukemia ip, survival T/C
# Assay: NCI In Vivo Anticancer Drug Screen. Data for tumor model L1210 Leukemia (intraperitoneal) in CD2F1 (CDF1) mice
# Details: higher = longer survival
# Procedure, shortened: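 In this screen, transplantable tumors were grown in mice given either the compound or its vehicle. Results were expressed as the treated measurement relative to the control measurement.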
# [1] = endpoint: mean survival time, dose: 50.0 mg/kg/injection, schedule: Q01DX009 (ip), vehicle: saline with Tween-80
# [2] = endpoint: mean survival time, dose: 100.0 mg/kg/injection, schedule: Q04DX003 (ip), vehicle: saline with Tween-80
# [3] = endpoint: mean survival time, dose: 200.0 mg/kg/injection, schedule: Q04DX003 (ip), vehicle: saline with Tween-80
# [4] = endpoint: mean survival time, dose: 400.0 mg/kg/injection, schedule: Q04DX003 (ip), vehicle: saline with Tween-80
# [5] = endpoint: mean survival time, dose: 25.0 mg/kg/injection, schedule: Q04DX002 (ip), vehicle: saline with Tween-80
# [6] = endpoint: mean survival time, dose: 200.0 mg/kg/injection, schedule: Q04DX002 (ip), vehicle: saline with Tween-80
structure (smiles),measurement,setting,value
NC(=O)c1c[se]c(C2OC(CO)C(O)C2O)n1 (stereo not given),T/C,"endpoint: median survival time, dose: 12.5 mg/kg/injection, schedule: Q01DX009 (ip), vehicle: water",174 % of control and 187 % of control
same,T/C,"endpoint: median survival time, dose: 25.0 mg/kg/injection, schedule: Q01DX009 (ip), vehicle: water",170 % of control and 193 % of control
same,T/C,"endpoint: median survival time, dose: 50.0 mg/kg/injection, schedule: Q01DX009 (ip), vehicle: water",206 % of control and 233 % of control
same,T/C,"endpoint: median survival time, dose: 100.0 mg/kg/injection, schedule: Q01DX009 (ip), vehicle: water",216 % of control and 233 % of control
c1ccc2c(-c3nnn4ccccc34)cccc2c1,T/C,"endpoint: mean survival time, dose: 100.0 mg/kg/injection, schedule: Q01DX001 (ip), vehicle: saline",89 % of control
same,T/C,"endpoint: mean survival time, dose: 200.0 mg/kg/injection, schedule: Q01DX001 (ip), vehicle: saline",106 % of control
same,T/C,"endpoint: mean survival time, dose: 400.0 mg/kg/injection, schedule: Q01DX001 (ip), vehicle: saline",97 % of control
Cc1cc(C(C)(C)C)c(OC(=S)N(C)C)c(C(C)(C)C)c1,T/C,"endpoint: mean survival time, dose: 25.0 mg/kg/injection, schedule: Q01DX009 (ip), vehicle: saline with Tween-80",92 % of control
same,T/C,[1],89 % of control
CC(C)(Nc1ccccc1)c1cccs1,T/C,[2],101 % of control
same,T/C,[3],97 % of control
same,T/C,[4],112 % of control
CCN(CC)C(=S)N1C(=O)C2C3CCC(O3)C2C1=O (stereo not given),T/C,[5],93 % of control
CC(CN)OCc1ccccc1 (stereo not given),T/C,"endpoint: mean survival time, dose: 25.0 mg/kg/injection, schedule: Q04DX003 (ip), vehicle: saline",98 % of control
same,T/C,"endpoint: mean survival time, dose: 50.0 mg/kg/injection, schedule: Q04DX003 (ip), vehicle: saline",101 % of control
same,T/C,"endpoint: mean survival time, dose: 100.0 mg/kg/injection, schedule: Q04DX003 (ip), vehicle: saline",101 % of control
C(=N\Nc1nc2ccccc2s1)/c1ccnc2ccccc12,T/C,"endpoint: mean survival time, dose: 100.0 mg/kg/injection, schedule: Q04DX003 (ip), vehicle: Klucel (hydroxypropylcellulose) (HPC)",94 % of control
same,T/C,"endpoint: mean survival time, dose: 200.0 mg/kg/injection, schedule: Q04DX003 (ip), vehicle: Klucel (hydroxypropylcellulose) (HPC)",92 % of control
same,T/C,"endpoint: mean survival time, dose: 400.0 mg/kg/injection, schedule: Q04DX003 (ip), vehicle: Klucel (hydroxypropylcellulose) (HPC)",94 % of control
CCN(CC)CC(C)Nc1c2ccc(Cl)cc2nc2ccc(OC)cc12 (stereo not given),T/C,"endpoint: mean survival time, dose: 100.0 mg/kg/injection, schedule: Q04DX002 (ip), vehicle: saline with Tween-80",94 % of control
same,T/C,[6],91 % of control
same,T/C,"endpoint: mean survival time, dose: 400.0 mg/kg/injection, schedule: Q04DX002 (ip), vehicle: saline with Tween-80",97 % of control
CCCCOc1ccc(/C=N\N=C\c2ccc(OCCCC)cc2)cc1,T/C,[2],88 % of control
same,T/C,[3],91 % of control
same,T/C,[4],86 % of control
CC(=O)N(C)c1ccc(NC(=O)Nc2ccc(C)c([N+](=O)[O-])c2)cc1,T/C,[1],102 % of control
same,T/C,"endpoint: mean survival time, dose: 100.0 mg/kg/injection, schedule: Q01DX009 (ip), vehicle: saline with Tween-80",94 % of control
same,T/C,"endpoint: mean survival time, dose: 200.0 mg/kg/injection, schedule: Q01DX009 (ip), vehicle: saline with Tween-80",90 % of control
O=C(O)/C=C\C(=O)O,T/C,"endpoint: mean survival time, dose: 0.5 mg/kg/injection, schedule: Q04DX003 (ip), vehicle: saline with Tween-80",107 % of control
same,T/C,"endpoint: mean survival time, dose: 1.0 mg/kg/injection, schedule: Q01DX009 (ip), vehicle: saline",100 % of control
same,T/C,"endpoint: mean survival time, dose: 1.0 mg/kg/injection, schedule: Q04DX003 (ip), vehicle: saline with Tween-80",95 % of control
same,T/C,"endpoint: mean survival time, dose: 1.56 mg/kg/injection, schedule: Q04DX003 (ip), vehicle: saline",89 % of control and 95 % of control
same,T/C,"endpoint: mean survival time, dose: 2.0 mg/kg/injection, schedule: Q01DX009 (ip), vehicle: saline",97 % of control
same,T/C,"endpoint: mean survival time, dose: 3.0 mg/kg/injection, schedule: Q04DX003 (ip), vehicle: saline with Tween-80",103 % of control
same,T/C,"endpoint: mean survival time, dose: 3.13 mg/kg/injection, schedule: Q04DX003 (ip), vehicle: saline",87 % of control and 91 % of control
same,T/C,"endpoint: mean survival time, dose: 6.0 mg/kg/injection, schedule: Q04DX003 (ip), vehicle: saline with Tween-80",103 % of control
same,T/C,"endpoint: mean survival time, dose: 6.25 mg/kg/injection, schedule: Q04DX003 (ip), vehicle: saline",92 % of control and 96 % of control
O=C(Oc1ccc(=O)[nH]n1)c1ccccc1,T/C,"endpoint: mean survival time, dose: 12.5 mg/kg/injection, schedule: Q04DX002 (ip), vehicle: saline with Tween-80",98 % of control
same,T/C,[5],94 % of control
same,T/C,"endpoint: mean survival time, dose: 50.0 mg/kg/injection, schedule: Q04DX002 (ip), vehicle: saline with Tween-80",90 % of control and 94 % of control
same,T/C,[6],87 % of control
O=C(Cc1cccc([N+](=O)[O-])c1)Nc1cccc(S(=O)(=O)F)c1,T/C,"endpoint: mean survival time, dose: 100.0 mg/kg/injection, schedule: Q01DX001 (ip), vehicle: saline with Tween-80",96 % of control
same,T/C,"endpoint: mean survival time, dose: 200.0 mg/kg/injection, schedule: Q01DX001 (ip), vehicle: saline with Tween-80",95 % of control
same,T/C,"endpoint: mean survival time, dose: 400.0 mg/kg/injection, schedule: Q01DX001 (ip), vehicle: saline with Tween-80",96 % of control
O=S1(=O)C2CCC(C2)C1Cl (stereo not given),T/C,[2],88 % of control
